The source of these data is the METLIN SMRT retention time set (Domingo-Almenara et al. 2019).

SMILES strings stand for the structures.

The series is described as follows: gradient 5% acetonitrile 3 min, to 50% in 2 min, to 85% in 15 min, held 3 min, 100 µL/min. The note with it: column: Zorbax Extend-C18 2.1 x 50 mm; eluents: water / acetonitrile, 0.1% formic acid. The method, boiled down: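 Over 3 months, pure standards in mixtures of ~100 molecules were run by HPLC coupled to a quadrupole time-of-flight mass spectrometer in positive and negative ionization mode. The column was a Zorbax Extend-C18 (2.1 × 50 mm, 1.8 μm) at 100 μL/min, eluted with water and acetonitrile each holding 0.1% formic acid, with 40 μL dead and 900 μL dwell volumes. Retention time was determined from adduct peaks chosen by software and checked manually.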
The compound `Cc1ccc(NC(=O)C2CCCN(c3ccc4cc(S(=O)(=O)N5CCCC5)ccc4n3)C2)cc1C` (configuration not stated) yielded an RP-LC retention time of 870 s.
Turning to `CCc1noc(NC(C)=O)c1-c1ccc(OC)c(S(=O)(=O)Nc2ccccc2OC)c1`, the RP-LC retention time worked out at 791 s.
With `CCc1cccc(C)c1Nc1c(-c2ccc(Cl)cc2)nc2cnccn12`, the RP-LC retention time came to 1110 s.
The compound `Cc1ccc2c(c1)N(S(C)(=O)=O)CCC(C(=O)Nc1ccc(F)cc1)O2` (configuration not stated) returned an RP-LC retention time of 930 s.
As to `CC(=O)Nc1c(C)nn(-c2ccccc2)c1N1CCC(C(=O)N2CCN(c3ccccn3)CC2)CC1`, the RP-LC retention time amounted to 569 s.
For `Cn1nc(-c2nncn2CC2CC2)c2c1CCN(C(=O)CC1CCCC1)C2`, the RP-LC retention time turned out to be 753 s.
`O=C(CN1CCc2ccccc2C1C(=O)N1CCCCC1)NCc1ccc(F)cc1Cl` (configuration not stated) returned an RP-LC retention time of 918 s.
Under `O=S(=O)(c1cccc(-c2nnc(-c3ccccc3Br)o2)c1)N1CCCC1` stands 1040 s; under `Cc1ccc(-c2nc3cccnc3n2CCCNC(=O)NCc2ccco2)cc1`, 674 s.
Consider `COC(=O)c1cn(CC(=O)N2CCc3ccccc32)c2ccccc12`, for which the RP-LC retention time is 974 s.
For `Cc1c(Cl)ccc2c(=O)c3c([nH]c12)CCN(CC(=O)NCc1ccc2c(c1)OCO2)C3` the value was 666 s; for `CCOc1cccc(-c2noc(-c3nnn4c3COC(c3ccc(C)cc3C)C4)n2)c1` (configuration not stated), 643 s.
In the case of `CCC(c1cccs1)N1C(=O)[C@H]2CN(S(=O)(=O)c3ccccc3F)C[C@H]2C1=O` (some centres not stated), the RP-LC retention time is 972 s.
`CCCN(CCC)C(=O)Cn1c(C2CCCN2C(=O)CC)nc2ccccc21` (configuration not stated): the RP-LC retention time worked out at 660 s.
For the compound `O=S(=O)(c1ccc2c(c1)CCC2)N1CCc2nc(-c3ccccc3)ncc2C1`, the RP-LC retention time is 1190 s.
`Cc1cc(NC(=O)CSc2cc(N3CCCC3)ncn2)ccc1Br` displayed an RP-LC retention time of 842 s.
Compound `Cc1cnc(C(=O)N[C@@H]2CCC[C@@H]2C(=O)NC2CCCC2)cn1` had an RP-LC retention time of 638 s.
For `COc1cccc(CNC(=O)c2cn3cc(C)ccc3n2)c1OC` the value was 541 s.
For `CCN1CCC[C@H]1CNC(=O)c1c(O)c(Cl)cc(Cl)c1OC`, the RP-LC retention time amounted to 777 s.
Regarding `Cc1oc(C2CCN(C(=O)Nc3ccc(F)cc3)CC2)nc1C(=O)N1CCCC1`, the RP-LC retention time came to 752 s.
As to `Cc1ccc(C)c(N2CCN(S(=O)(=O)c3c(C)sc(C)c3-c3n[nH]c(C)c3C)CC2)c1`, the RP-LC retention time is 1190 s.
As for `O=C(Nc1cccc(Br)c1)C1CC(=O)N(c2n[nH]c3cccc(F)c23)C1` (configuration not stated), the RP-LC retention time is 824 s.
Take `CN(C)c1cnc(-n2cc(NC(=O)c3ccc(C#N)cc3)cn2)nc1`: the RP-LC retention time is 716 s.
Compound `O=C(NC1CCCC1)C1CCCCN1S(=O)(=O)c1ccc(F)cc1` (configuration not stated) returned an RP-LC retention time of 941 s.
With `Cc1cccc(NC(=O)C2CCN(S(=O)(=O)c3ccc4c(c3)sc(=O)n4C(C)C)CC2)c1`, the RP-LC retention time stood at 1010 s.
Regarding `Cc1cccc(NC(=O)C2CCCN(c3nc4ccccc4nc3C(F)(F)F)C2)c1C` (configuration not stated), the RP-LC retention time was 830 s.
In turn, `COC(=O)c1ccc(OC)c(Cn2cnc3c(-c4ccccc4)csc3c2=O)c1` displayed an RP-LC retention time of 988 s.
Compound `COc1ccc(OCc2nc(-c3ccc(-c4csc(C)n4)cc3)no2)cc1` had an RP-LC retention time of 1170 s.
Under `COc1cc(NC(=O)CCc2c(-c3ccc(F)cc3)nc3ccccn23)cc(OC)c1` stands 672 s; under `CN(C)C(=O)c1cc2c(s1)CCC(C(=O)NC1CCCC1)C2` (configuration not stated), 696 s.
Regarding `CSc1cccc(NC(=O)N(C)CC2CCOCC2)c1`, the RP-LC retention time is 743 s.
`O=C(CN1C(=O)CC(c2ccccc2)S(=O)(=O)c2ccccc21)Nc1ccc(F)cc1F` (configuration not stated) returned an RP-LC retention time of 906 s.
